Data taken from patent publication US20250368648A1, “MULTI-CYCLIC IRAK AND FLT3 INHIBITING COMPOUNDS AND USES THEREOF” (CHILDREN'S HOSPITAL MEDICAL CENTER, priority 2022, published 2025).
pKd: −log10 of the molar value.

Target: T1, FLT3 ITD (Homo sapiens, UniProt P36888)
T1 construct: fused on or other part: DNA tag for qPCR read-out (T7 phage fusion, or DNA-tagged kinase made in HEK-293 cells)
T1 sequence (P36888 1-993): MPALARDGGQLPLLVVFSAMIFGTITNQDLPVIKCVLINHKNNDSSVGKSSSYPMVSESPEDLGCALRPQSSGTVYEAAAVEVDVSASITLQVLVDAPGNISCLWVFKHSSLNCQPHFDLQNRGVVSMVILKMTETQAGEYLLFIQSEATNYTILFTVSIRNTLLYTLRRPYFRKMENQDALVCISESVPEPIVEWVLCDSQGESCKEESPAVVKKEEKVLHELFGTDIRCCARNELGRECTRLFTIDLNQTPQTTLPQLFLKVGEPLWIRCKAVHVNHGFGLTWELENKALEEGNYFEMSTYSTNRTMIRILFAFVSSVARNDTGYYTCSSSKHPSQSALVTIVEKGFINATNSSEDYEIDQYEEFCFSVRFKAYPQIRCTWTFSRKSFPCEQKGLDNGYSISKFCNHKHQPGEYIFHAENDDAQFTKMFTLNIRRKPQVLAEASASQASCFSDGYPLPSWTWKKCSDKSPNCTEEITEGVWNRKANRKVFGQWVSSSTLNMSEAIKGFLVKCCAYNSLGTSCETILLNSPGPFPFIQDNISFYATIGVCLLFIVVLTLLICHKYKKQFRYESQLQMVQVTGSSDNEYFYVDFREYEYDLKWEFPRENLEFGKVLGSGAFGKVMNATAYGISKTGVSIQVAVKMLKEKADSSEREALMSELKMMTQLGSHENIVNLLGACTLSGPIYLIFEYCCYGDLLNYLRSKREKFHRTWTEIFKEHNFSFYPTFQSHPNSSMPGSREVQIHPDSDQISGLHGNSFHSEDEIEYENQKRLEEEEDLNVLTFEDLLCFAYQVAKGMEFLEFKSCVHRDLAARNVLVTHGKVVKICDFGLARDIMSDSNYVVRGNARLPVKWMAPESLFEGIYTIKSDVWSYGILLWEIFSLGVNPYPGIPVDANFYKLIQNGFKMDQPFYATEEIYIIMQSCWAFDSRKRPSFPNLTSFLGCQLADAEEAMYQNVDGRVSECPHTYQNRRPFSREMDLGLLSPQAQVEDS
Assay: DiscoverX KINOMEscan competition binding, FLT3 ITD
Settings: no ATP
Source text: Kinase binding data were obtained for various exemplary compounds prepared according to Examples 2-15 using the DiscoverX KINOMEscan® active site-directed competition binding site-directed assay protocol described below. […] As a result, the data report thermodynamic interaction affinities (Kd values), rather than IC50 values that are dependent on ATP concentrations. The assay uses a DNA-tagged version of the protein kinase, and an immobilized ligand bound to a solid support. Compounds that directly or indirectly prevent kinase binding to the immobilized ligand reduce the amount of kinase captured on the solid support, which is detected using an ultra-sensitive qPCR method. Affinity constants reported from the assay have been reported to be independent of the immobilized ligand used that is coupled to the solid support (See supplemental information in Fabian, M. A. et. al., (2005) Nat. […] Wodicka, L. […] Biol. 17, 1241-1249.) Kinase-tagged T7 phage strains were prepared in an E. coli host derived from the BL21 strain. E. coli were grown to log-phase and infected with T7 phage and incubated with shaking at 32° C. until lysis. […] Kds were determined using an 11-point 3-fold compound dilution series with three DMSO control points. […] The kinase concentration in the eluates was measured by qPCR. Binding constants (Kds) were calculated with a standard dose-response curve using the Hill equation. […]

`COc1cc2ncc(-c3nc(N[C@H]4CNCC[C@@H]4F)c(F)cc3F)n2nc1C1CCC1` [Compound 15a, 6-(6-cyclobutyl-7-methoxyimidazo[1,2-b]pyridazin-3-yl)-3,5-difluoro-N-((3S,4S)-4-fluoropiperidin-3-yl)pyridin-2-amine] showed a pKd of 9.37.
